The results in this text go back to ChEMBL document CHEMBL5465560, “Selectivity Literature for EUbOPEN Chemogenomic Library” (2024).

The pIC50 is the IC50 on a negative log10 scale, so that one unit is a factor of ten.

Experiment [1] deals with Serine/threonine-protein kinase B-raf (Homo sapiens) (UniProt P15056). Description: Selectivity interaction (SelectScreen profiling (Invitrogen)) EUB0000607a BRAF. To be noted: at 2 µM.
Experiment [2] concerns Serine/threonine-protein kinase B-raf (Homo sapiens), P15056 [V600E]. Kind of experiment: (§1) Selectivity interaction (KinomeScan (DiscoverX)) EUB0000229b BRAF. To be noted: at 1 µM.
Sequence of Serine/threonine-protein kinase B-raf (Homo sapiens), P15056 [V600E] (P15056 whole entry V600E): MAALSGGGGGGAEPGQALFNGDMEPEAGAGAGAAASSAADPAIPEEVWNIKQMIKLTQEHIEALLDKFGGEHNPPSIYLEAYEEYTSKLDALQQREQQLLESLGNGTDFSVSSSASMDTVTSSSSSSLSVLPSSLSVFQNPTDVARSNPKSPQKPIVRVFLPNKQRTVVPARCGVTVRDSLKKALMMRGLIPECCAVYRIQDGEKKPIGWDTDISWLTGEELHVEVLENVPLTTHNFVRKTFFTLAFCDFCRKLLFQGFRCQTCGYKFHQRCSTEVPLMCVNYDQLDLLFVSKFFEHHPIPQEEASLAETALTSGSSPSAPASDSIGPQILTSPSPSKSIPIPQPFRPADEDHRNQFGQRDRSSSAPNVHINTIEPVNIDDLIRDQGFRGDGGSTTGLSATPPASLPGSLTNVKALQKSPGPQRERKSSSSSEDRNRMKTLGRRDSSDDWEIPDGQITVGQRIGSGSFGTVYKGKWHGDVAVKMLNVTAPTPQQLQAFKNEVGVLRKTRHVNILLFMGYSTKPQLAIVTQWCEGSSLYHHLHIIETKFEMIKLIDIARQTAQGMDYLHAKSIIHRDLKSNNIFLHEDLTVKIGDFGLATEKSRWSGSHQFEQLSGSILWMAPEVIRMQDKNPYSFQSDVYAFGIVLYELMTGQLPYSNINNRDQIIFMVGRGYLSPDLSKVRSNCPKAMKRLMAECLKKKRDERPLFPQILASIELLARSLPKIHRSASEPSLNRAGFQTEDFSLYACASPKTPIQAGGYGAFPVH
Experiment [3] addresses Serine/threonine-protein kinase B-raf (Homo sapiens) (UniProt P15056). The experiment is described as §1. To be noted: at 10 µM.
Experiment [4] has as its target T1, Protein arginine N-methyltransferase 9 (Homo sapiens, UniProt Q6P2P2).
T1 sequence (Q6P2P2 whole entry): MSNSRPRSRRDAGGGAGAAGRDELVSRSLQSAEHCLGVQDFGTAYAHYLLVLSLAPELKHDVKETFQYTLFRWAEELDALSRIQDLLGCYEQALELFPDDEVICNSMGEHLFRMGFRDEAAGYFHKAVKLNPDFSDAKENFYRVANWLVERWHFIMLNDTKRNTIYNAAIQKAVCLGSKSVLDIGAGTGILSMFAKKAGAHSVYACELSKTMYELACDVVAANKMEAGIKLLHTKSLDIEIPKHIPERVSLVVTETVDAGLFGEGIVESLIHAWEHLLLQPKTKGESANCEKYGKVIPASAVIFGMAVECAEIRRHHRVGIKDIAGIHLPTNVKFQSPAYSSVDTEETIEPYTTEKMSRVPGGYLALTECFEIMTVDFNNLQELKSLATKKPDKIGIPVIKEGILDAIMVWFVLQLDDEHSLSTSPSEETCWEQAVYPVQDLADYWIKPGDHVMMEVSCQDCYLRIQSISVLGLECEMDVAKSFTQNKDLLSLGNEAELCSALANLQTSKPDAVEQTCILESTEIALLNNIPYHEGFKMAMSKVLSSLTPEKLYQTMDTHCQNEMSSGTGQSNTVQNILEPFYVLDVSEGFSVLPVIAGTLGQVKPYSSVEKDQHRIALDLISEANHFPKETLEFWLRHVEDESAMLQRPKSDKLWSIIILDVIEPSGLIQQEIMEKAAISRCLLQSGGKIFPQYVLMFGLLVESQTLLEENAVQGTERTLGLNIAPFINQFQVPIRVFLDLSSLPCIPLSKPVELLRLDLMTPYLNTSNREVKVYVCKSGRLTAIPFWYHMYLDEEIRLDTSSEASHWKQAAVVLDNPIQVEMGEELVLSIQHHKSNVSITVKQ
Description: Selectivity interaction (Scintillation proximity assays) EUB0000255b PRMT9. Background: SPA uses beads or plates that emit light when radiolabelled molecules are held near them.

The target in experiment [5] is Cyclin-dependent kinase 18 (Homo sapiens) (UniProt Q07002). Description: Selectivity interaction (KinomeScan (DiscoverX)) EUB0000655a CDK18. To be noted: at 10 µM.
In experiment [6] the target is Tyrosine-protein kinase CSK (Homo sapiens) (UniProt P41240). Description: Selectivity interaction (KinomeScan (DiscoverX)) EUB0001079a CSK. To be noted: at 1 µM.
Sequence of Tyrosine-protein kinase CSK (Homo sapiens) (P41240 2-450 limits assumed): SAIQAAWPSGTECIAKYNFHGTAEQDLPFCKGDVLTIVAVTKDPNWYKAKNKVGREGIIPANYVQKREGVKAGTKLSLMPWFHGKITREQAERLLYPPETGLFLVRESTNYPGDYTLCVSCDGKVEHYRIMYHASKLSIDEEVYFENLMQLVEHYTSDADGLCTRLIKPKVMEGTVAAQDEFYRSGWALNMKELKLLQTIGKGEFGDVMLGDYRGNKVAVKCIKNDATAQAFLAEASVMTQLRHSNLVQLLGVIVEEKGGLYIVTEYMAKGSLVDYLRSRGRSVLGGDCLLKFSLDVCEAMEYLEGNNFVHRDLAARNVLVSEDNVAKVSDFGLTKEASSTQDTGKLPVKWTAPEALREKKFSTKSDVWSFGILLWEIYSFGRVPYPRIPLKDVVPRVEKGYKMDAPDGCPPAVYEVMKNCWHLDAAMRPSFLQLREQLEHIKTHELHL
In experiment [7] the target is T2, Dual specificity tyrosine-phosphorylation-regulated kinase 1A (Homo sapiens, UniProt Q13627). Description: Selectivity interaction (KinomeScan (DiscoverX)) EUB0001079a DYRK1A. To be noted: at 1 µM.
The target of experiment [8] is Tyrosine-protein kinase JAK2 (Homo sapiens, UniProt O60674). Kind of experiment: Selectivity interaction (Enyzmatic assay) EUB0000601a JAK2.
Sequence of Tyrosine-protein kinase JAK2 (O60674 whole entry): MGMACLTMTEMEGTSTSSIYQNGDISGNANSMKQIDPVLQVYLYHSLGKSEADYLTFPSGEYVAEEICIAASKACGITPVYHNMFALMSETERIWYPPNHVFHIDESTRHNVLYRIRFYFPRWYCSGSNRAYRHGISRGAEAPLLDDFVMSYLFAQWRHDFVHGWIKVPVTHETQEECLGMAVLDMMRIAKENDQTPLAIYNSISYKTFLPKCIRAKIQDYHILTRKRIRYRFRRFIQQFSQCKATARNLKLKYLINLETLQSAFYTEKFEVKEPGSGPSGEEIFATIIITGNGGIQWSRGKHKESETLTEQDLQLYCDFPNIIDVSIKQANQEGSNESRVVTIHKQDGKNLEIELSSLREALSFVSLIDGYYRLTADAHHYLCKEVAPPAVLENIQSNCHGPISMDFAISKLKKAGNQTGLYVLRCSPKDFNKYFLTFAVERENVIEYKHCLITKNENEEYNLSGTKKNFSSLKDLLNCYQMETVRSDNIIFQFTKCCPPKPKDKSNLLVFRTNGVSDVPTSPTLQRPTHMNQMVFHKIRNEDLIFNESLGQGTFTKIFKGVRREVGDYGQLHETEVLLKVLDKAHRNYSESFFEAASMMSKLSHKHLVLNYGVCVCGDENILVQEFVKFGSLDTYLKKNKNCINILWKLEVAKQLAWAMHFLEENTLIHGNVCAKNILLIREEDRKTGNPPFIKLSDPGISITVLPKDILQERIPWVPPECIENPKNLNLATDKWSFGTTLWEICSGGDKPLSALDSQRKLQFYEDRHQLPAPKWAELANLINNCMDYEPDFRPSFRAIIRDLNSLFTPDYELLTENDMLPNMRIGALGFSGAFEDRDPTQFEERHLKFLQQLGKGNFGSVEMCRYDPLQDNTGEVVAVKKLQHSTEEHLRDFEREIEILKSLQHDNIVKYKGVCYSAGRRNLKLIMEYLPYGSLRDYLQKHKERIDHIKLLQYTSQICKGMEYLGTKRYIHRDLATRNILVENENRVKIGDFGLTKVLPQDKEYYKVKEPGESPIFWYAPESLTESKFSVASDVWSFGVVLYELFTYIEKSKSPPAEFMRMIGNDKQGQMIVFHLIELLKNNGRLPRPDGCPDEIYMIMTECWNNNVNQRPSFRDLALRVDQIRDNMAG
Experiment [9] concerns the target T3, Serine/threonine-protein kinase 17A (Homo sapiens) (UniProt Q9UEE5).
T3 sequence (whole entry): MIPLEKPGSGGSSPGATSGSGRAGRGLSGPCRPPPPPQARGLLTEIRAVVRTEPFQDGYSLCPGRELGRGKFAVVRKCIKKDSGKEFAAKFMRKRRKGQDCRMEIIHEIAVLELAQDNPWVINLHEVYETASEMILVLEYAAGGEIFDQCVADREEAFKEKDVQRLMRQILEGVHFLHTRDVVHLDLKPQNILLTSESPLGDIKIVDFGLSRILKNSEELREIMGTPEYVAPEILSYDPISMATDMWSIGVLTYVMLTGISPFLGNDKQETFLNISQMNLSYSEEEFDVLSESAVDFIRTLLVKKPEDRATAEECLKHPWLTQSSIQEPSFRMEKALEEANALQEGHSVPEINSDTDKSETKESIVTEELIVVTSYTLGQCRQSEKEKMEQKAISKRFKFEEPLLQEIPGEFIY
Description: Selectivity interaction (KinomeScan (DiscoverX)) EUB0001619a STK17A. To be noted: at 1 µM.

In experiment [10] the target is Phosphatidylinositol 3-kinase catalytic subunit type 3 (Homo sapiens, UniProt Q8NEB9). Kind of experiment: Selectivity interaction (ActivX KiNativ screen (kinase selectivity in THP-1 cell lysates)) EUB0000639a PIK3C3. To be noted: lysate, at 1 µM. The experiment is classed as subcellular.
Sequence of Phosphatidylinositol 3-kinase catalytic subunit type 3 (Q8NEB9 whole entry): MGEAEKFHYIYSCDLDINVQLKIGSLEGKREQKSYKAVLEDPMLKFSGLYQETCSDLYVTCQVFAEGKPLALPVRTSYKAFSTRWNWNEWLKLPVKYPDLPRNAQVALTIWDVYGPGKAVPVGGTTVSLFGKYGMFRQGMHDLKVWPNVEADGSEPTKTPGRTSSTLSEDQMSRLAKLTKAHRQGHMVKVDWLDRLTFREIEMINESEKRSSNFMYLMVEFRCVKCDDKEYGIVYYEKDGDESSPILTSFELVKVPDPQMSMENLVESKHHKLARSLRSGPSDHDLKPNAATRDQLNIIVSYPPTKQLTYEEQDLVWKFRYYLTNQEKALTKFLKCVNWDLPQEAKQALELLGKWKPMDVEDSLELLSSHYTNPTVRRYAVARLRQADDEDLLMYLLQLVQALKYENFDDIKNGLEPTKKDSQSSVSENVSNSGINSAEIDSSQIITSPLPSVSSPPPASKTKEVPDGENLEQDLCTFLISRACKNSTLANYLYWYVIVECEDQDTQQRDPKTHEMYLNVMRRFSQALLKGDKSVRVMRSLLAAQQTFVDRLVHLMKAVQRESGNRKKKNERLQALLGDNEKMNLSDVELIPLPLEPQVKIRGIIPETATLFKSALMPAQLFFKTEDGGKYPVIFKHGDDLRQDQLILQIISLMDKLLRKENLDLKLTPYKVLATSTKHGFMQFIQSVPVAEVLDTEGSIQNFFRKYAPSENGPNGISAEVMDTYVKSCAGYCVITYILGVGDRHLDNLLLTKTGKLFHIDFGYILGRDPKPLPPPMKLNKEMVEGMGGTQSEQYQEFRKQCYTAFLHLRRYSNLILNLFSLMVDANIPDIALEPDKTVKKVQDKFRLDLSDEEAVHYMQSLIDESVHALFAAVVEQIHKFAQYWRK
In experiment [11] the target is Dual specificity protein kinase CLK1 (Homo sapiens, UniProt P49759). Description: Selectivity interaction (Kinase panel (Invitrogen)) EUB0000639a CLK1. To be noted: at 200 nM.
The test system of experiment [12] is Fibroblast growth factor receptor 3 (Homo sapiens), P22607 [G697C]. Description: (§2) Selectivity interaction (KinomeScan (DiscoverX)) EUB0000695a FGFR3. To be noted: at 100 nM.
Sequence of Fibroblast growth factor receptor 3 (Homo sapiens), P22607 [G697C] (P22607 whole entry G697C): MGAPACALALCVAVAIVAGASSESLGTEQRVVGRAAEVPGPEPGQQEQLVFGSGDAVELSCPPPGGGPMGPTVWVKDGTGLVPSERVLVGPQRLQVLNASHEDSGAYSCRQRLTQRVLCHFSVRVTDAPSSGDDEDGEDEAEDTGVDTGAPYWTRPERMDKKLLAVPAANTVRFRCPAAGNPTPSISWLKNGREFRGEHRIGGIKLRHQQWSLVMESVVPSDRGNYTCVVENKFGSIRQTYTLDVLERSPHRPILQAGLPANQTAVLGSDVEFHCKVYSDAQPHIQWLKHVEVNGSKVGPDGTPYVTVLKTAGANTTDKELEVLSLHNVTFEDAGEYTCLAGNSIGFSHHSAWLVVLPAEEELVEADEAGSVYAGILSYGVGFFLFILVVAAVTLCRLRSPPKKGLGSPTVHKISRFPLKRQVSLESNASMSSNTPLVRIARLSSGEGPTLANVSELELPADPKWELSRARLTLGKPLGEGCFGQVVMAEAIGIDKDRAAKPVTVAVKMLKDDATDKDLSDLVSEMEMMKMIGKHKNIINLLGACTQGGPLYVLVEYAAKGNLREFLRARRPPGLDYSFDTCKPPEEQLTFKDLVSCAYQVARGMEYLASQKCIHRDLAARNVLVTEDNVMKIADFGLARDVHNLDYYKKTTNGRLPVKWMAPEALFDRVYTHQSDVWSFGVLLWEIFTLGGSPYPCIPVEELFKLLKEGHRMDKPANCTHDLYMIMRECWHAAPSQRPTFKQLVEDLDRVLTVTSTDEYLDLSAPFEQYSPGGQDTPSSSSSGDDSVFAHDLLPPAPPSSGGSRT
Experiment [13] has as its target Fibroblast growth factor receptor 3 (Homo sapiens, UniProt P22607). Described as §2. To be noted: at 100 nM.
The target of experiment [14] is B2 bradykinin receptor (Homo sapiens) (UniProt P30411). Description: Selectivity interaction (Eurofins CEREP Diversity Profile (receptors and ion channels)) EUB0000279b BDKRB2. To be noted: at 10 µM.
Sequence of B2 bradykinin receptor (Homo sapiens) (P30411 whole entry, the tested form may be a part): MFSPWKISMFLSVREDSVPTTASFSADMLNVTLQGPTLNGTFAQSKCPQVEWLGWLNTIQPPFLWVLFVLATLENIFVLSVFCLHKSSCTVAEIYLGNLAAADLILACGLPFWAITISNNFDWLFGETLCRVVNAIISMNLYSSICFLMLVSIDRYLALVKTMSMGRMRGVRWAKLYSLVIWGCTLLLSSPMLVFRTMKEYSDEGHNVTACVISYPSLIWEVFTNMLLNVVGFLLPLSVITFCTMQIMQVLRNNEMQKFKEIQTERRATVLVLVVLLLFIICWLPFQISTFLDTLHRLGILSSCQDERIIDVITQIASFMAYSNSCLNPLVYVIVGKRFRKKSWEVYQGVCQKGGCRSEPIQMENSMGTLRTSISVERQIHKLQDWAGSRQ
For experiment [15], the target named is ATPase family AAA domain-containing protein 2B (Homo sapiens) (UniProt Q9ULI0). Kind of experiment: Selectivity interaction (Bromodomain panel (DSF asssay)) EUB0000270b ATAD2B.
Experiment [16] deals with T2, Dual specificity tyrosine-phosphorylation-regulated kinase 1A. Kind of experiment: Selectivity interaction (KinomeScan (DiscoverX)) EUB0000092b DYRK1A. To be noted: at 10 µM.
Experiment [17] deals with T4, Phosphorylase b kinase gamma catalytic chain, liver/testis isoform (Homo sapiens) (UniProt P15735).
T4 sequence (whole entry): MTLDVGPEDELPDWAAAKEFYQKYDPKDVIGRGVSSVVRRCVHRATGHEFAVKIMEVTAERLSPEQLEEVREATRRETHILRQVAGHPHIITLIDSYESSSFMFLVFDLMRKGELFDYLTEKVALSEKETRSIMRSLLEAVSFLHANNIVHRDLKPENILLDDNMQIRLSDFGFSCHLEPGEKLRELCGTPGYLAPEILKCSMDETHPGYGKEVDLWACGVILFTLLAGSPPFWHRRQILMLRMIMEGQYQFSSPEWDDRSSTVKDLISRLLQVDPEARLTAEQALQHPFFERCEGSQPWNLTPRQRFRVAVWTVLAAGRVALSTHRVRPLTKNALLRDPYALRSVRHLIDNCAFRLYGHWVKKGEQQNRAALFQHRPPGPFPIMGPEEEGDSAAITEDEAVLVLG
Description: Selectivity interaction (KinomeScan (DiscoverX)) EUB0000092b PHKG2. To be noted: at 10 µM.

Experiment [18] deals with Ribosomal protein S6 kinase beta-1 (Homo sapiens, UniProt P23443). Description: Selectivity interaction (KinomeScan (DiscoverX)) EUB0000618a RPS6KB1. To be noted: at 10 µM.
Sequence of Ribosomal protein S6 kinase beta-1 (P23443 whole entry, looked up): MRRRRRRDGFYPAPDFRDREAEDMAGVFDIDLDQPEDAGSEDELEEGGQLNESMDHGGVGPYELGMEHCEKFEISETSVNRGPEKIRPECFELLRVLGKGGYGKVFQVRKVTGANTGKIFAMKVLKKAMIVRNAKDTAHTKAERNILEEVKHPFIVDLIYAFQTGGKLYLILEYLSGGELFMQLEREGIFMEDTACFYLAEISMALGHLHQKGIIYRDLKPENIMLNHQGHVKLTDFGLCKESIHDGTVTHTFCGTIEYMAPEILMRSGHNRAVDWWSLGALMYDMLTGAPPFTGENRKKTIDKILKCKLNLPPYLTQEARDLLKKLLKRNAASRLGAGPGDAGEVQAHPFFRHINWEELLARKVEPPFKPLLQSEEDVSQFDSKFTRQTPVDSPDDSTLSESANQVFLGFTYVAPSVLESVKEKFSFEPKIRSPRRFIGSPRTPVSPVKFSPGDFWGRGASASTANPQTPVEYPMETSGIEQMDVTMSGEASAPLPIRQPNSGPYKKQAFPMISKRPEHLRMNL
The target of experiment [19] is T2, Dual specificity tyrosine-phosphorylation-regulated kinase 1A. Description: Selectivity interaction (KinomeScan (DiscoverX)) EUB0000618a DYRK1A. To be noted: at 10 µM.

pIC50: −log10 of the molar value. A value given as a limit tells only on which side of the number the result lay.

Sequence of Serine/threonine-protein kinase B-raf (Homo sapiens) (P15056 whole entry): as the sequence (P15056 whole entry V600E) above, with E600V counted along it

With `CNC(=O)Nc1ccc(-c2nc(N3CC4CCC(C3)O4)c3cnn(C4CCC5(CC4)OCCO5)c3n2)cc1`, the % of inhibition in [1] was determined as 6%.
As for `COc1cc(N(C)c2ccnc3ccc(C(F)(F)F)cc23)cc(OC)c1OC`, the % binding in experiment [2] was determined as 78%; in experiment [3], 71%.
As for `COCCN1CCC(c2cc(CN(C)C(=O)c3cccc(Oc4ccccc4)c3)ccn2)CC1`, the negative logarithm of the IC50 (pIC50) in [4] was below 5.00.
`CN(C)CCOc1ccc(-c2nc(-c3ccncc3)c(-c3ccc4c(c3)CC/C4=N\O)[nH]2)cc1`: in [5], the % of control stood at 100%.
As for `Nc1cnc(N2CCc3cc(S(=O)(=O)Nc4c(F)cc(Cl)cc4F)cc(N4CCCC4=O)c32)nc1` [TP-020n], the % of control in [6] amounted to 99%; in experiment [7], 80%.
Molecule `CCc1cc(Nc2nccc(-c3c(-c4ccc(OC)c(C(=O)Nc5c(F)cccc5F)c4)nc4ccccn34)n2)c(OC)cc1N1CCC(N2CCN(S(C)(=O)=O)CC2)CC1` gave a pIC50 in experiment [8] below 4.80.
For `N#Cc1cccc(-c2c[nH]c3ncnc(N4CCOCC4)c23)c1`, the % of control in experiment [9] was 88%.
On to `CC[C@@H]1[C@H](F)C(=O)N[C@@H]1COc1nccc2cc(C(N)=O)c(OC)cc12` [ZIMLOVISERTIB], for which the % of inhibition in experiment [10] is -13.7%; in experiment [11] it was 34.5%.
For `Cc1cc(F)c(C(=O)Nc2cccc(-c3nncn3C(C)C)n2)cc1-n1cnc(C2CC2)c1`, the % of control in experiment [12] stood at 88%; in experiment [13], 93%.
`CC(=O)c1cc(-c2ccccc2OCC2CC2)c2ncccn12`: the % of control in experiment [14] amounted to 112%.
In [15], `Cc1cc(CN)cc(C)c1-c1ncn(C)c1-c1cncn1C` registered a dTM of -1.47 K.
Turning to `CCC(=O)N1CCN(c2ccc(-n3c(=O)ccc4cnc5ccc(-c6cnc7ccccc7c6)cc5c43)cc2C(F)(F)F)CC1`, the % of control in [16] came to 71%; in [17] it was 100%.
As to `O[C@H]1CC[C@H](Nc2ncc3nc(Nc4c(F)cc(F)cc4F)n([C@H]4CCOC4)c3n2)CC1`, the % of control in experiment [18] is 80%; in [19], 98%.
